According to the supplement of paper PMC10307832:

Key:
Experiment in all cases: relative viability (nuclei count vs DMSO), 5 days (fraction); higher = more cells survive
[1] = test system: HCC-44
In short: (§1)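 Relative viability divides the nuclei count in treated wells by that in vehicle wells. Lung cancer cell lines were seeded in 1536-well plates, dosed by pin tool the next day, and fixed and stained after 5 days in one step with final 0.05% Triton X-100, 1% formaldehyde and 1 ug/ml Hoechst. Dosing was a single drug or a fixed anchor-drug dose plus five library-drug doses (not always all listed) in √10 steps, and values are medians of duplicate plates imaged at 4×.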

[2] = test system: LC-2-ad
In short: as §1

[3] = test system: NCI-H2170
In short: as §1

[4] = test system: NCI-H838
In short: as §1

[5] = test system: NCI-H1395
In short: as §1

[6] = test system: HOP-62
In short: as §1

[7] = test system: NCI-H1993
In short: as §1

[8] = test system: NCI-H1666
In short: as §1

[9] = test system: NCI-H322M
In short: as §1

[10] = test system: NCI-H1355
In short: as §1

[11] = test system: NCI-H1651
In short: as §1

[12] = test system: 201T
In short: as §1

[13] = test system: NCI-H2085
In short: as §1

[14] = test system: ABC-1
In short: as §1

[15] = test system: NCI-H23
In short: as §1

[16] = test system: CAL-12T
In short: as §1

[17] = test system: LCLC-103H
In short: as §1

[18] = test system: NCI-H2347
In short: as §1

[19] = test system: NCI-H647
In short: as §1

[20] = test system: COR-L23
In short: as §1

[21] = test system: NCI-H661
In short: as §1

[22] = test system: NCI-H520
In short: as §1

SMILES: Cc1cnc(-c2cnc(NCCNc3ccc(C#N)cn3)nc2-c2ccc(Cl)cc2Cl)[nH]1 + NC(=O)Nc1cc(-c2cccc(F)c2)sc1C(=O)N[C@H]1CCCNC1 [AZD7762] (partner 0.2 µM)
- relative viability ([1]; first compound 0.08 µM): 1.05
- relative viability ([1]; first compound 0.253 µM): 1.02
- relative viability ([1]; first compound 0.8 µM): 1.06
- relative viability ([1]; first compound 2.53 µM): 1.15
- relative viability ([2]; first compound 0.08 µM): 0.851
- relative viability ([2]; first compound 0.8 µM): 0.687
- relative viability ([2]; first compound 2.53 µM): 0.841
- relative viability ([3]; first compound 0.08 µM): 1.01
- relative viability ([3]; first compound 0.8 µM): 0.774
- relative viability ([3]; first compound 2.53 µM): 0.695
- relative viability ([4]; first compound 0.08 µM): 0.973
- relative viability ([4]; first compound 0.253 µM): 0.919
- relative viability ([4]; first compound 0.8 µM): 0.941
- relative viability ([4]; first compound 2.53 µM): 0.983
- relative viability ([5]; first compound 0.08 µM): 0.425
- relative viability ([5]; first compound 0.253 µM): 0.43
- relative viability ([5]; first compound 0.8 µM): 0.4
- relative viability ([5]; first compound 2.53 µM): 0.374
- relative viability ([6]; first compound 0.08 µM): 0.817
- relative viability ([6]; first compound 0.253 µM): 0.383
- relative viability ([6]; first compound 0.8 µM): 0.45
- relative viability ([6]; first compound 2.53 µM): 0.748
- relative viability ([7]; first compound 0.08 µM): 0.918
- relative viability ([7]; first compound 0.253 µM): 0.683
- relative viability ([7]; first compound 0.8 µM): 0.703
- relative viability ([7]; first compound 2.53 µM): 0.9
- relative viability ([8]; first compound 0.08 µM): 0.852
- relative viability ([8]; first compound 0.253 µM): 0.864
- relative viability ([8]; first compound 0.8 µM): 0.838
- relative viability ([8]; first compound 2.53 µM): 0.78
- relative viability ([9]; first compound 0.08 µM): 0.526
- relative viability ([9]; first compound 0.253 µM): 0.546
- relative viability ([9]; first compound 0.8 µM): 0.566
- relative viability ([9]; first compound 2.53 µM): 0.675
- relative viability ([10]; first compound 0.08 µM): 0.831
- relative viability ([10]; first compound 0.253 µM): 0.624
- relative viability ([10]; first compound 0.8 µM): 0.691
- relative viability ([10]; first compound 2.53 µM): 0.577
- relative viability ([11]; first compound 0.08 µM): 0.506
- relative viability ([11]; first compound 0.253 µM): 0.406
- relative viability ([11]; first compound 0.8 µM): 0.454
- relative viability ([11]; first compound 2.53 µM): 0.459
- relative viability ([12]; first compound 0.08 µM): 0.702
- relative viability ([12]; first compound 0.8 µM): 0.567
- relative viability ([12]; first compound 2.53 µM): 0.619
- relative viability ([13]; first compound 0.08 µM): 1.02
- relative viability ([13]; first compound 0.253 µM): 0.77
- relative viability ([13]; first compound 0.8 µM): 0.901
- relative viability ([13]; first compound 2.53 µM): 1.05
- relative viability ([14]; first compound 0.253 µM): 0.772
- relative viability ([14]; first compound 0.8 µM): 0.771
- relative viability ([14]; first compound 2.53 µM): 0.862
- relative viability ([15]; first compound 0.08 µM): 0.313
- relative viability ([15]; first compound 0.253 µM): 0.16
- relative viability ([15]; first compound 0.8 µM): 0.247
- relative viability ([15]; first compound 2.53 µM): 0.256
- relative viability ([16]; first compound 0.08 µM): 0.586
- relative viability ([16]; first compound 0.253 µM): 0.567
- relative viability ([16]; first compound 0.8 µM): 0.544
- relative viability ([16]; first compound 2.53 µM): 0.693
- relative viability ([17]; first compound 0.08 µM): 0.86
- relative viability ([17]; first compound 0.253 µM): 0.76
- relative viability ([17]; first compound 0.8 µM): 0.714
- relative viability ([17]; first compound 2.53 µM): 0.757
- relative viability ([18]; first compound 0.08 µM): 0.873
- relative viability ([18]; first compound 0.253 µM): 0.612
- relative viability ([18]; first compound 0.8 µM): 0.689
- relative viability ([18]; first compound 2.53 µM): 0.79
- relative viability ([19]; first compound 0.08 µM): 0.439
- relative viability ([19]; first compound 0.253 µM): 0.341
- relative viability ([19]; first compound 0.8 µM): 0.405
- relative viability ([19]; first compound 2.53 µM): 0.364

SMILES: Cc1cnc(-c2cnc(NCCNc3ccc(C#N)cn3)nc2-c2ccc(Cl)cc2Cl)[nH]1 + Nc1ncn([C@H]2C[C@H](O)[C@@H](CO)O2)c(=O)n1 [Decitabine] (partner 2 µM)
- relative viability ([1]; first compound 0.08 µM): 0.846
- relative viability ([1]; first compound 0.253 µM): 0.561
- relative viability ([1]; first compound 0.8 µM): 0.925
- relative viability ([1]; first compound 2.53 µM): 1.02
- relative viability ([2]; first compound 0.08 µM): 0.791
- relative viability ([2]; first compound 0.8 µM): 0.885
- relative viability ([2]; first compound 2.53 µM): 0.776
- relative viability ([3]; first compound 0.08 µM): 0.481
- relative viability ([3]; first compound 0.8 µM): 0.484
- relative viability ([3]; first compound 2.53 µM): 0.406
- relative viability ([4]; first compound 0.08 µM): 0.503
- relative viability ([4]; first compound 0.253 µM): 0.506
- relative viability ([4]; first compound 0.8 µM): 0.47
- relative viability ([4]; first compound 2.53 µM): 0.46
- relative viability ([5]; first compound 0.08 µM): 0.774
- relative viability ([5]; first compound 0.253 µM): 0.714
- relative viability ([5]; first compound 0.8 µM): 0.737
- relative viability ([5]; first compound 2.53 µM): 0.757
- relative viability ([6]; first compound 0.08 µM): 0.204
- relative viability ([6]; first compound 0.253 µM): 0.226
- relative viability ([6]; first compound 0.8 µM): 0.236
- relative viability ([6]; first compound 2.53 µM): 0.174
- relative viability ([7]; first compound 0.08 µM): 0.744
- relative viability ([7]; first compound 0.253 µM): 0.584
- relative viability ([7]; first compound 0.8 µM): 0.628
- relative viability ([7]; first compound 2.53 µM): 0.591
- relative viability ([8]; first compound 0.08 µM): 0.759
- relative viability ([8]; first compound 0.253 µM): 0.713
- relative viability ([8]; first compound 0.8 µM): 0.618
- relative viability ([8]; first compound 2.53 µM): 0.844
- relative viability ([9]; first compound 0.08 µM): 0.654
- relative viability ([9]; first compound 0.253 µM): 0.655
- relative viability ([9]; first compound 0.8 µM): 0.567
- relative viability ([9]; first compound 2.53 µM): 0.726
- relative viability ([10]; first compound 0.08 µM): 0.354
- relative viability ([10]; first compound 0.253 µM): 0.316
- relative viability ([10]; first compound 0.8 µM): 0.36
- relative viability ([10]; first compound 2.53 µM): 0.371
- relative viability ([11]; first compound 0.08 µM): 0.626
- relative viability ([11]; first compound 0.253 µM): 0.523
- relative viability ([11]; first compound 0.8 µM): 0.587
- relative viability ([11]; first compound 2.53 µM): 0.625
- relative viability ([12]; first compound 0.08 µM): 0.817
- relative viability ([12]; first compound 0.8 µM): 0.828
- relative viability ([12]; first compound 2.53 µM): 0.849
- relative viability ([20]; first compound 0.08 µM): 0.521
- relative viability ([20]; first compound 0.253 µM): 0.367
- relative viability ([20]; first compound 0.8 µM): 0.521
- relative viability ([20]; first compound 2.53 µM): 0.548
- relative viability ([13]; first compound 0.08 µM): 0.535
- relative viability ([13]; first compound 0.253 µM): 0.554
- relative viability ([13]; first compound 0.8 µM): 0.542
- relative viability ([13]; first compound 2.53 µM): 0.572
- relative viability ([14]; first compound 0.08 µM): 1.27
- relative viability ([14]; first compound 0.253 µM): 0.871
- relative viability ([14]; first compound 0.8 µM): 1.08
- relative viability ([14]; first compound 2.53 µM): 0.918
- relative viability ([21]; first compound 0.08 µM): 0.609
- relative viability ([21]; first compound 0.253 µM): 0.545
- relative viability ([21]; first compound 0.8 µM): 0.569
- relative viability ([21]; first compound 2.53 µM): 0.551
- relative viability ([15]; first compound 0.08 µM): 0.382
- relative viability ([15]; first compound 0.253 µM): 0.293
- relative viability ([15]; first compound 0.8 µM): 0.323
- relative viability ([15]; first compound 2.53 µM): 0.387
- relative viability ([22]; first compound 0.08 µM): 0.531
- relative viability ([22]; first compound 0.253 µM): 0.504
- relative viability ([22]; first compound 0.8 µM): 0.563
- relative viability ([22]; first compound 2.53 µM): 0.546
- relative viability ([17]; first compound 0.08 µM): 0.732
- relative viability ([17]; first compound 0.253 µM): 0.722
- relative viability ([17]; first compound 0.8 µM): 0.751
- relative viability ([17]; first compound 2.53 µM): 0.728
- relative viability ([18]; first compound 0.08 µM): 0.708
- relative viability ([18]; first compound 0.253 µM): 0.55
- relative viability ([18]; first compound 0.8 µM): 0.65
- relative viability ([18]; first compound 2.53 µM): 0.65
- relative viability ([19]; first compound 0.08 µM): 0.381
- relative viability ([19]; first compound 0.253 µM): 0.36
- relative viability ([19]; first compound 0.8 µM): 0.349
- relative viability ([19]; first compound 2.53 µM): 0.297
